Results reported in ChEMBL document CHEMBL1154655, “Curcumin analog cytotoxicity against breast cancer cells: exploitation of a redox-dependent mechanism” (Bioorg Med Chem Lett, 2009).

Legend:
[1] = tested on: MDA-MB-435; experiment: Cytotoxicity against human MDA-MB-435 cells; type: functional, cell-based
[2] = tested on: A549; experiment: Inhibition of NF-kappaB nuclear translocation in human A549 cells; type: functional, cell-based

| SMILES | IC50 [1] | IC50 [2] |
| --- | --- | --- |
| O=C1/C(=C/c2ccccn2)CNC/C1=C\c1ccccn1 | 1000 nM |  |
| O=C1/C(=C/c2ccccc2F)CNC/C1=C\c1ccccc1F | 1500 nM | 1300 nM |
| COc1cc(/C=C/C(=O)CC(=O)/C=C/c2ccc(O)c(OC)c2)ccc1O [CURCUMIN] |  | 13000 nM |
